# Source: patent US20200405716A1, “HISTONE DEACETYLASE 6 (HDAC6) BIOMARKERS IN MULTIPLE MYELOMA” (Acetylon Pharmaceuticals, Inc., priority 2013, published 2020)
# Experiments:
# Assay type in all cases: cell-based, Human
# stromal cell line HS-5 = assay: microRNA and mRNA array, treated stromal HS-5 cells; conditions: Compound D 2 uM, 37° C., 6 hours
# Text: (§1) The Human miRNome Complete RT^2 miRNA PCR Array profiles the expression of the 752 most abundantly expressed and best characterized microRNA (miRNA) sequences in the Human miRNA genome (miRNome), as annotated by the Sanger miRBase Release 14.
# (§2) The Illumina Gene Expression Beadchip content provides genome-wide transcriptional coverage of well-characterized genes, gene candidates, and splice variants. Each array on the BeadChip targets more than 47,000 probes derived from the National Center for Biotechnology Information Reference Sequence (NCBI) RefSeq Release 38 (Nov. 7, 2009) and other sources.
# (§3) Compound D was incubated with a multiple myeloma cell line (MM.1S or RPMI8226) or a stromal cell line (HS-5) at 37° C. for 6 hours. The concentration of Compound D was 2 uM.
# (§4) Total RNA was extracted from the treated cells (e.g., MM.1S cells and RPMI8226 cells) and analyzed using microRNA array.
# (§5) The numbers shown are normalized to the expression level of the corresponding biomarker in control cells. For example, the expression level of biomarker hsa-miR-346 was 0.26, which means that the expression level of this biomarker in treated MM.1S cells was 26% of the expression level of this biomarker in MM.1S control cells. Conversely, the expression level of biomarker hsa-miR-145 was 3.09, which means that the expression level of this biomarker in treated MM.1S cells was 3.09 fold of the expression level of this biomarker in MM.1S control cells.
# [1] = test system: multiple myeloma cell line MM.1S; assay: microRNA and mRNA array, treated MM.1S cells; conditions: 37° C., 6 hours
# Text: The Human miRNome Complete RT^2 miRNA PCR Array profiles the expression of the 752 most abundantly expressed and best characterized microRNA (miRNA) sequences in the Human miRNA genome (miRNome), as annotated by the Sanger miRBase Release 14. The Illumina Gene Expression Beadchip content provides genome-wide transcriptional coverage of well-characterized genes, gene candidates, and splice variants. Each array on the BeadChip targets more than 47,000 probes derived from the National Center for Biotechnology Information Reference Sequence (NCBI) RefSeq Release 38 (Nov. 7, 2009) and other sources. Compound D was incubated with a multiple myeloma cell line (MM.1S or RPMI8226) or a stromal cell line (HS-5) at 37° C. for 6 hours. The concentration of Compound D was 2 uM. Alternatively, Compound A was incubated with the multiple myeloma cell line MM.1S at 37° C. for 6 hours. Total RNA was extracted from the treated cells (e.g., MM.1S cells and RPMI8226 cells) and analyzed using microRNA array. […] The numbers shown are normalized to the expression level of the corresponding biomarker in control cells. For example, the expression level of biomarker hsa-miR-346 was 0.26, which means that the expression level of this biomarker in treated MM.1S cells was 26% of the expression level of this biomarker in MM.1S control cells. Conversely, the expression level of biomarker hsa-miR-145 was 3.09, which means that the expression level of this biomarker in treated MM.1S cells was 3.09 fold of the expression level of this biomarker in MM.1S control cells.
# [2] = test system: multiple myeloma cell line RPMI8226; assay: microRNA and mRNA array, treated RPMI8226 cells; conditions: RPMI-8226 cells, Compound D 2 uM, 37° C., 6 hours
# Text: as §1, §2, §3, §4, §5
# [3] = Compound A (concentration not given)
compound,measurement,setting,value
"O=C(NO)c1cnc(NC2(c3ccccc3)CC2)nc1 [Compound D, N-hydroxy-2-((1-phenylcyclopropyl)amino)pyrimidine-5-carboxamide]",HIF-1a expression level in treated cells as % of the expression level in control cells,stromal cell line HS-5,49%
same,"PTPRU expression level in treated cells, fold of the expression level in control cells",stromal cell line HS-5,2.52 fold
same,expression of mRNA SEQ ID NO: 24 (HIF-1a) normalized to control cells,stromal cell line HS-5,0.49
same,expression of mRNA SEQ ID NO: 25 (PTPRU) normalized to control cells,stromal cell line HS-5,2.52
same,expression of miRNA SEQ ID NO: 10 normalized to control cells,stromal cell line HS-5,0.26
same,expression of miRNA SEQ ID NO: 11 normalized to control cells,stromal cell line HS-5,0.15
same,expression of miRNA SEQ ID NO: 19 normalized to control cells,stromal cell line HS-5,6.64
same,expression of miRNA SEQ ID NO: 20 normalized to control cells,stromal cell line HS-5,21.71
same,expression of miRNA SEQ ID NO: 21 normalized to control cells,stromal cell line HS-5,54.35
same,expression of miRNA SEQ ID NO: 22 normalized to control cells,stromal cell line HS-5,5.95
same,expression of miRNA SEQ ID NO: 23 normalized to control cells,stromal cell line HS-5,3.52
same,expression of miRNA SEQ ID NO: 1 (hsa-miR-346) normalized to control cells,[1]; Compound D 2 uM,0.26
same,expression of miRNA SEQ ID NO: 2 normalized to control cells,[1]; Compound D 2 uM,0.33
same,expression of miRNA SEQ ID NO: 3 normalized to control cells,[1]; Compound D 2 uM,0.23
same,expression of miRNA SEQ ID NO: 4 normalized to control cells,[1]; Compound D 2 uM,0.27
same,expression of miRNA SEQ ID NO: 5 normalized to control cells,[1]; Compound D 2 uM,0.31
same,expression of miRNA SEQ ID NO: 12 (hsa-miR-145) normalized to control cells,[1]; Compound D 2 uM,3.09
same,expression of miRNA SEQ ID NO: 13 normalized to control cells,[1]; Compound D 2 uM,3.53
same,expression of miRNA SEQ ID NO: 14 normalized to control cells,[1]; Compound D 2 uM,3.19
same,expression of miRNA SEQ ID NO: 15 normalized to control cells,[1]; Compound D 2 uM,3.29
same,expression of miRNA SEQ ID NO: 16 normalized to control cells,[1]; Compound D 2 uM,4.68
same,expression of small non-coding RNA SEQ ID NO: 26 normalized to control cells,[1]; Compound D 2 uM,0.46
same,expression of small non-coding RNA SEQ ID NO: 27 normalized to control cells,[1]; Compound D 2 uM,0.45
same,expression of miRNA SEQ ID NO: 2 normalized to control cells,[2],0.09
same,expression of miRNA SEQ ID NO: 6 normalized to control cells,[2],0.28
same,expression of miRNA SEQ ID NO: 7 normalized to control cells,[2],0.25
same,expression of miRNA SEQ ID NO: 8 normalized to control cells,[2],0.33
same,expression of miRNA SEQ ID NO: 9 normalized to control cells,[2],0.24
same,expression of miRNA SEQ ID NO: 17 normalized to control cells,[2],3.22
same,expression of miRNA SEQ ID NO: 18 normalized to control cells,[2],3.31
"O=C(CCCCCCNC(=O)c1cnc(N(c2ccccc2)c2ccccc2)nc1)NO [Compound A, 2-(diphenylamino)-N-(7-(hydroxyamino)-7-oxoheptyl) pyrimidine-5-carboxamide]",expression of small non-coding RNA SEQ ID NO: 26 normalized to control cells,[1]; [3],0.74
same,expression of small non-coding RNA SEQ ID NO: 27 normalized to control cells,[1]; [3],0.74
